The structures appear in SMILES notation.

Here are results for 61 compounds from US20180170941A1 (priority 2016, published 2018).

T1 sequence (P31644 32-462): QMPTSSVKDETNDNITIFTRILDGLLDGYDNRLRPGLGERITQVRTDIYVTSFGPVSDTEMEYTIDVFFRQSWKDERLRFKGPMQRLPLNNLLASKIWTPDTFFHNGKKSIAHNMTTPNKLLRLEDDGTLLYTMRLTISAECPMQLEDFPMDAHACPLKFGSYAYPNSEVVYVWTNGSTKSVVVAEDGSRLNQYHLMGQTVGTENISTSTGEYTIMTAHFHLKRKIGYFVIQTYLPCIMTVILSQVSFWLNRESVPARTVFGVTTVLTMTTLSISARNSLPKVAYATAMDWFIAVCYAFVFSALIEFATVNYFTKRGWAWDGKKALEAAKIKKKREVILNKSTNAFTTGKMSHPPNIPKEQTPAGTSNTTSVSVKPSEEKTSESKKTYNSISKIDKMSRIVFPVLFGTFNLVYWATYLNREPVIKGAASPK
T1 sequence (P28472 26-473 partner): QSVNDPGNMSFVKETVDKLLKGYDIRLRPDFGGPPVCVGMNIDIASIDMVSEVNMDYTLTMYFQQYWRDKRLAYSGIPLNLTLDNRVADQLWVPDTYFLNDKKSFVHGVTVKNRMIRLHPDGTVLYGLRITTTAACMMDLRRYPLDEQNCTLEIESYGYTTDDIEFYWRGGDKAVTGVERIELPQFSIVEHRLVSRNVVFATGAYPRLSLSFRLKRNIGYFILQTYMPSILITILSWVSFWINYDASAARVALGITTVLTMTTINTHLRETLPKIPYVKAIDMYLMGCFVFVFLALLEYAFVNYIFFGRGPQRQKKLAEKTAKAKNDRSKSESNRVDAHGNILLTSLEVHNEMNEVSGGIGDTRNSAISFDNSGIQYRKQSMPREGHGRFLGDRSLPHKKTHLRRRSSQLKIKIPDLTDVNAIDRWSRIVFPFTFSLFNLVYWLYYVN
T1 sequence (P18507 40-475): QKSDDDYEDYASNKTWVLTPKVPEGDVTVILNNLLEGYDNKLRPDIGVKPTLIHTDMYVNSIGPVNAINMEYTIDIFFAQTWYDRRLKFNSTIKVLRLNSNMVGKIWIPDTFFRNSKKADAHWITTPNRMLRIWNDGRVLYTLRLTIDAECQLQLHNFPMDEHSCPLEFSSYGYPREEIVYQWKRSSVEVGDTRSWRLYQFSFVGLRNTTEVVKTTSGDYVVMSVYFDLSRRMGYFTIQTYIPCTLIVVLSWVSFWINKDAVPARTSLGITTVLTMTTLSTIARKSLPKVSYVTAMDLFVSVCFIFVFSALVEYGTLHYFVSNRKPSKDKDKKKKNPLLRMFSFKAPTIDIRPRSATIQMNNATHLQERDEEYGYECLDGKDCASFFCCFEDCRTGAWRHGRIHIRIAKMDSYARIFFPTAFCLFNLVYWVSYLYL

The first test concerns the target T1, α5β3γ2 GABAA receptors (Ltk cell membranes) (Homo sapiens, UniProt P18507+P31644).
T1 construct: membranes
Description: Binding activity of test compounds on GABAAR: inhibition of [3H]Ro15-1788 binding.
Conditions: not given
Here is the method: Tissue culture and Membrane Preparation: The binding was performed on Ltk cells stably expressing GABAA receptors: α1β1γ2, α2β3γ2, α3β3γ2 and α5β3γ2 (provided by Merck Co., NJ, USA). Cells were seeded in 100 mm culture plates in DMEM/F12 medium containing 10% serum and antibiotics in 5% CO2 and allowed to grow for 1-2 days. GABAAR expression was then induced by dexamethasone as follows: 0.5 μM for 1 day for α5 containing and 2μM for 3 days for α1, α2 and α3 containing GABAARs. After induction, cells were collected by scraping into Dulbecco's Phosphate buffered saline (DPBS, pH 7.4, Invitrogen, Carlsbad, Calif., USA) and centrifuged at 150×g for 10 min. The pellet was washed twice by re-suspension and centrifugation. The cell pellets from at least 5 different preps were combined, suspended in the binding assay buffer (50 mM KH2P4; 1 mM EDTA; 0.2 M KCl, pH 7.4) and membranes prepared by sonication (3-5 times, 30 sec) using Branson Sonifier 150 (G.Heinmann, Germany). Protein content was determined using BCA assay (Bio-Rad Labs, Reinach, Switzerland) with Bovine Serum Albumin (Sigma Aldrich, St. Louis, Mo., USA) as the standard. Aliquots were prepared and stored at −20° C. for further use in binding assays.
Ligand Binding: Saturation binding curves were obtained by incubating membranes with increasing concentrations (0.01-8 nM) of [^3H]Ro15-1788 (Flumazepil, 75-85 Ci/mmol, PerkinElmer, MA, USA), with nonspecific binding measured in the presence of 10 μM diazepam.
All binding assays were performed for 1 h at 4° C. in assay buffer. The total assay volume was 0.5 ml containing 0.2 mg/ml protein for α5 and 0.4 mg/ml for α1, α2, and α3 containing GABAAR membranes. Incubations were terminated by filtration through GF/B filters using a 24-Cell Harvestor (Brandel, Gaithersburg, Md., USA) followed by 3 washes with ice-cold assay buffer. Filters were transferred to scintillation vials, 5 ml scintillation liquid added, vortex-mixed and kept in dark. Next day, radioactivity was obtained using a scintillation counter (Beckman Coulter, Brea, Calif., USA). All assays were performed in triplicate.
Data Analyses: Saturation and inhibition curves were obtained using GraphPad Prism software (GraphPad Software, Inc., CA, USA).
On to `COc1ccc2c(c1)-c1nnc(COc3ccccc3C(C)(C)C)n1Cc1c(C#N)ncn1-2` [Compound 192], for which the Ki (commonly the dissociation constant of the complex between target and ligand, obtained from inhibition or displacement) is more than 1000 nM. Same read-out and setting: next, `COc1ccc2c(c1)-c1nnc(COc3ccccc3C(F)(F)F)n1Cc1c(C#N)ncn1-2` [Compound 193]: more than 1000 nM. The compound `Clc1ccc2c(c1)-c1nnc(COc3ccccc3)n1Cc1c(C3OCCO3)ncn1-2` [Compound 204] registered a Ki of more than 1000 nM.

Still in this test, the particulars now being: GABA α5 Binding Ki Values, inhibition of [3H]Ro15-1788 binding; reported as ranges.
As for `Cc1cnc(-c2ncn3c2Cc2c(C)nnn2-c2cc(F)ccc2-3)nc1` [Compound 144], the Ki fell in the range of 100 to 1000 nM. In turn, `Cc1nc(-c2ncn3c2Cc2c(C)nnn2-c2cc(F)ccc2-3)no1` [Compound 145] gave an inhibition constant (Ki) of less than 100 nM. `Cc1cnc(-c2ncn3c2Cc2c(C)nnn2-c2ccccc2-3)nc1` [Compound 146] had an inhibitory constant (Ki) of 100 to 1000 nM.

For `CC(C)c1nc(-c2ncn3c2Cn2c(COc4ccccc4)nnc2-c2cc(F)ccc2-3)no1` [Compound 147], the Ki was less than 100 nM. For the compound `Cc1nc(-c2ncn3c2Cn2c(COc4ccccc4)nnc2-c2cc(F)ccc2-3)no1` [Compound 148], the Ki was less than 100 nM. Still for that read-out and setting: the value for `Cc1nnn2c1Cc1c(-c3noc(C(C)C)n3)ncn1-c1ccc(F)cc1-2` [Compound 149] was less than 100 nM; that for `Cc1nnn2c1Cc1c(-c3noc(C(F)(F)F)n3)ncn1-c1ccc(F)cc1-2` [Compound 150] was less than 100 nM. Same read-out and setting: next, `Cc1nnn2c1Cc1c(-c3ncon3)ncn1-c1ccc(F)cc1-2` [Compound 151]: less than 100 nM; `Cc1nnn2c1Cc1c(-c3cnn(C)c3)ncn1-c1ccc(F)cc1-2` [Compound 152]: more than 1000 nM. `Cc1nnn2c1Cc1c(C(=O)OC(C)C)ncn1-c1ccccc1-2` [Compound 153] showed a Ki of less than 100 nM. Consider `Cc1cc(-c2ncn3c2Cc2c(C)nnn2-c2cc(F)ccc2-3)ccn1` [Compound 154], for which the Ki was more than 1000 nM.

`CCc1nc(-c2ncn3c2Cc2c(C)nnn2-c2cc(F)ccc2-3)no1` [Compound 155] registered a Ki of less than 100 nM. `CC(C)OC(=O)c1ncn2c1Cn1c(COc3ccccc3)nnc1-c1cc(F)ccc1-2` [Compound 156] showed a Ki of less than 100 nM.

`N#Cc1ncn2c1Cn1c(COc3ccccc3)nnc1-c1cc(F)ccc1-2` [Compound 157] gave a Ki of less than 100 nM. Still for that read-out and setting: the value for `CCc1nc(-c2ncn3c2Cn2c(COc4ccccc4)nnc2-c2cc(F)ccc2-3)no1` [Compound 158] was less than 100 nM; that for `Fc1ccc2c(c1)-c1nnc(COc3ccccc3)n1Cc1c(-c3noc(C(F)(F)F)n3)ncn1-2` [Compound 159] was less than 100 nM. For the compound `Cc1nnn2c1Cc1c(-c3noc(C(C)(C)C)n3)ncn1-c1ccc(F)cc1-2` [Compound 160], the Ki was less than 100 nM. Take `C#Cc1ncn2c1Cc1c(C)nnn1-c1ccccc1-2` [Compound 161]: the Ki is less than 100 nM.

For the compound `COc1ccc2c(c1)-c1nnc(COc3ccccc3)n1Cc1c(-c3noc(C)n3)ncn1-2` [Compound 162], the Ki was less than 100 nM.

`COc1ccc2c(c1)-c1nnc(COc3ccc(F)cc3)n1Cc1c(-c3noc(C)n3)ncn1-2` [Compound 163] gave a Ki of less than 100 nM.

`COCc1nnc2n1Cc1c(-c3noc(C)n3)ncn1-c1ccc(OC)cc1-2` [Compound 164] yielded a Ki of less than 100 nM. As to `COc1ccc2c(c1)-c1nnc(COCc3ccccc3)n1Cc1c(-c3noc(C)n3)ncn1-2` [Compound 165], the Ki is less than 100 nM. On the same count and under the same terms, the value for `COc1ccc2c(c1)-c1nnc(COCc3ccccc3)n1Cc1c(C#N)ncn1-2` [Compound 166] was less than 100 nM; that for `COc1ccc2c(c1)-n1nnc(C)c1Cc1c(-c3nc(C)no3)ncn1-2` [Compound 167] was less than 100 nM. On to `COc1ccc2c(c1)-n1nnc(COc3cccc(F)c3)c1Cc1c(-c3noc(C)n3)ncn1-2` [Compound 168], for which the Ki was less than 100 nM.

In the case of `COCc1nnc2n1Cc1c(-c3noc(C(C)C)n3)ncn1-c1ccc(OC)cc1-2` [Compound 169], the Ki is less than 100 nM. Compound `COc1ccc2c(c1)-n1nnc(CN3CCCC3)c1Cc1c(-c3nc(C(C)C)no3)ncn1-2` [Compound 170] registered an inhibition constant Ki of 100 to 1000 nM. Compound `COc1ccc2c(c1)-c1nnc(COc3ccccc3)n1Cc1c(-c3noc(C(C)C)n3)ncn1-2` [Compound 171] gave a Ki of less than 100 nM. In turn, `COc1ccc2c(c1)-c1nnc(COc3ccc(F)cc3)n1Cc1c(-c3noc(C(C)C)n3)ncn1-2` [Compound 172] gave a Ki of less than 100 nM. The same measure, in the same setting: next, `CCOCc1nnc2n1Cc1c(-c3noc(C(C)C)n3)ncn1-c1ccc(OC)cc1-2` [Compound 173]: less than 100 nM; `COc1ccc2c(c1)-c1nnc(COc3ccccc3F)n1Cc1c(-c3noc(C(C)C)n3)ncn1-2` [Compound 174]: less than 100 nM. As to `COc1ccc2c(c1)-c1nnc(COc3ccccc3Cl)n1Cc1c(-c3noc(C(C)C)n3)ncn1-2` [Compound 175], the Ki was less than 100 nM. As for `COc1ccc2c(c1)-c1nnc(COc3cccnc3)n1Cc1c(-c3noc(C(C)C)n3)ncn1-2` [Compound 176], the Ki was less than 100 nM. Regarding `COc1ccc2c(c1)-c1nnc(COc3cccc4ccccc34)n1Cc1c(-c3noc(C(C)C)n3)ncn1-2` [Compound 177], the inhibition constant Ki is less than 100 nM. For `COc1ccc2c(c1)-c1nnc(COC3CCCC3)n1Cc1c(-c3noc(C(C)C)n3)ncn1-2` [Compound 178], the Ki is less than 100 nM. With `COc1ccc2c(c1)-c1nnc(COc3cccc(F)c3)n1Cc1c(-c3noc(C(C)C)n3)ncn1-2` [Compound 179], the Ki is less than 100 nM.

In turn, `COc1ccc2c(c1)-n1nnc(COc3ccc(F)cc3)c1Cc1c(-c3noc(C)n3)ncn1-2` [Compound 180] showed a Ki of less than 100 nM. `COc1ccc2c(c1)-n1nnc(COc3ccccc3F)c1Cc1c(-c3noc(C)n3)ncn1-2` [Compound 181] came in with a Ki of less than 100 nM. Compound `COc1ccc2c(c1)-n1nnc(COc3ccccc3)c1Cc1c(-c3noc(C)n3)ncn1-2` [Compound 182] had an inhibitory constant (Ki) of less than 100 nM. As for `COc1ccc2c(c1)-c1nnc(COCc3cccc(F)c3)n1Cc1c(-c3noc(C(C)C)n3)ncn1-2` [Compound 183], the Ki is less than 100 nM.

In turn, `COc1ccc2c(c1)-c1nnc(COCc3ccccc3F)n1Cc1c(-c3noc(C(C)C)n3)ncn1-2` [Compound 184] came in with a Ki of less than 100 nM.

In turn, `CC(C)c1nc(-c2ncn3c2Cn2c(COc4cccnc4)nnc2-c2cc(F)ccc2-3)no1` [Compound 185] returned a Ki of less than 100 nM.

On to `COCc1nnc2n1Cc1c(-c3noc(C(C)C)n3)ncn1-c1ccc(F)cc1-2` [Compound 186], for which the inhibition constant (Ki) was less than 100 nM. Still for that read-out and setting: the value for `CCOCc1nnc2n1Cc1c(-c3noc(C(C)C)n3)ncn1-c1ccc(F)cc1-2` [Compound 187] was less than 100 nM; that for `CC(C)c1nc(-c2ncn3c2Cn2c(COc4cccc(F)c4)nnc2-c2cc(F)ccc2-3)no1` [Compound 188] was less than 100 nM. On the same count and under the same terms, next, `CC(C)c1nc(-c2ncn3c2Cn2c(COc4ccc(F)cc4)nnc2-c2cc(F)ccc2-3)no1` [Compound 189]: less than 100 nM; `Cc1cccc(C)c1OCc1nnc2n1Cc1c(-c3noc(C(C)C)n3)ncn1-c1ccc(F)cc1-2` [Compound 190]: less than 100 nM. Consider `COc1ccc2c(c1)-c1nnc(COc3ccc(F)cc3)n1Cc1c(C#N)ncn1-2` [Compound 191], for which the Ki was 100 to 1000 nM. `CCc1nc(-c2ncn3c2Cc2c(Cc4ccccc4)nnn2-c2cc(OC)ccc2-3)no1` [Compound 194] came in with a Ki of less than 100 nM. The compound `CCc1nc(-c2ncn3c2Cc2c(Cc4ccc(F)cc4)nnn2-c2cc(OC)ccc2-3)no1` [Compound 195] registered a Ki of less than 100 nM. `COc1ccc2c(c1)-c1nnc(COc3cccc(F)c3)n1Cc1c(C#N)ncn1-2` [Compound 196] showed a Ki of less than 100 nM. On the same count and under the same terms, the value for `N#Cc1ncn2c1Cn1c(COc3ccccc3)nnc1-c1cc(Cl)ccc1-2` [Compound 197] was less than 100 nM; that for `COCc1nnc2n1Cc1c(-c3nc(C)no3)ncn1-c1ccc(Cl)cc1-2` [Compound 198] was less than 100 nM.

`FC(F)=Cc1ncn2c1Cn1c(COc3ccccc3)nnc1-c1cc(Cl)ccc1-2` [Compound 199] yielded a Ki of less than 100 nM. Turning to `FC(F)c1ncn2c1Cn1c(COc3ccccc3)nnc1-c1cc(Cl)ccc1-2` [Compound 200], the Ki fell in the range of 100 to 1000 nM. Compound `COc1ccc2c(c1)-c1nnc(COC(C)(C)C)n1Cc1c(-c3noc(C(C)C)n3)ncn1-2` [Compound 201] returned a Ki of 100 to 1000 nM. In turn, `Clc1ccc2c(c1)-c1nnc(COc3ccccc3)n1Cc1c(Br)ncn1-2` [Compound 202] registered an inhibition constant (Ki) of less than 100 nM. On the same count and under the same terms, next, `COc1ccc2c(c1)-c1nnc(COCc3cccnc3)n1Cc1c(-c3noc(C(C)C)n3)ncn1-2` [Compound 203]: less than 100 nM.
